# Patent publication US12528826B2, “[1,4]oxazepino[2,3-c]quinolinone derivatives as BCL6 inhibitors” (Cancer Research Technology Limited, priority 2019, dated 2026)
# Tests used:
# [1] = target: T1, Trx-6×His-BCL6 (human BCL6 BTB domain covering amino-acid sequence 5-129) (Homo sapiens, UniProt P41182); experiment: HTRF assay (BCL6 / BCOR peptide); type: binding; details: 1 nM Trx-6×His-BCL6, 300 nM BCOR-AF633 peptide, 2 hours incubation at room temperature; read-out: HTRF avg pIC50 (converted)
# T1 construct: made in house
# Experimental: After 2 hours incubation at room temperature the plate was read on a Pherastar FSX (BMG Labtech) plate reader equipped with 337 nm laser excitation filter, a first emission filter at 620 nm and a second emission filter at 665 nm. The % inhibition at each concentration was calculated by normalising FRET ratio to the appropriate high (DMSO with all reagents) and low (DMSO without BCL6) controls.
# [2] = tested on: GC B cells and non-GC B cells in spleen cell cultures; experiment: Mouse splenocyte flow cytometry immunology experiments; type: cell-based
# Experimental: Male C57BL/6 mice were immunised in both flanks subcutaneously with CFA (100 μl of 4 mg/ml CFA). On day 8 the animals were terminated, spleens harvested and processed to single cell suspensions.
# Splenocytes were resuspended in complete media (RPMI 1640+10% foetal calf serum, supplemented with 4 mM L-glutamine, 100 U/ml-100 μg/ml) penicillin/streptomycin and 50 μM B-mercaptoethanol (Gibco)). The cells were activated for 48 hours with 2 μg/ml αCD40 (ThermoFisher)+[…] IL-4 (Bio-techne) at 37° C. in a humidified CO2 incubator. Example 4b was added at the same time as activation in an 8-point dose titration. Following the culture period, cells were collected, washed with PBS (Gibco) and selected wells were counted using a LUNA™ Counter (Logos Biosystems).
# Harvested cells were washed in PBS (Gibco) and stained with Invitrogen™ eBioscience™ Fixable Viability Dye eFluor 780 (Fisher scientific), then FcR blocked (Miltenyi Biotec) and stained with surface receptor antibodies (see Table 3 below). Cells were then washed in flow cytometry buffer (PBS supplemented with 1% BSA and 0.05% azide) and the secondary streptavidin was added. Cells were then washed, fixed and permeabilized in Transcription factor staining buffer (Fisher scientific); according to the manufacturer's instructions. Intracellular antibodies were then added to the samples. Following final washes, cells were fixed in 1% PFA and acquired on a BD LSR Fortessa™ (BD Bioscience). All analysis was carried out using FlowJo software v10.
# In order to test the hypothesis that degradation or inhibition of Bcl6 may be able to modulate primary cells of the immune system, resulting in a decrease in their potential to generate autoantibodies, the above experiment was performed. Mice were immunised in order to drive the generation of germinal centre (GC) B cells. Spleens were then cultured in the presence or absence of a Bcl6 inhibitor (Example 4b) for 48 hours and non-GC B cells or GC B cells were identified using flow cytometry (FIG. 1).
IC50 [1] [nM],SMILES,other results
15.8,"Cn1c(=O)c2c(c3cc(Nc4nc(N5CC[C@@H](F)[C@H](F)C5)ncc4Cl)ccc31)N[C@@H](C1CC1)C(F)(F)CO2 (racemic) [Example 10b, (S)-10-((5-chloro-2-((3S,4S)-3,4-difluoropiperidin-1-yl)pyrimidin-4-yl)amino)-2-cyclopropyl-3,3-difluoro-7-methyl-1,2,3,4-tetrahydro-[1,4]oxazepino[2,3-c]quinolin-6(7H)-one; (S)-10-((5-chloro-2-((3R,4R)-3,4-difluoropiperidin-1-yl)pyrimidin-4-yl)amino)-2-cyclopropyl-3,3-difluoro-7-methyl-1,2,3,4-tetrahydro-[1,4]oxazepino[2,3-c]quinolin-6(7H)-one]",–
0.776,"CC(=O)N1CC2CCC(C1)N2c1ncc(Cl)c(Nc2ccc3c(c2)c2c(c(=O)n3C)OCC(F)(F)[C@H](C3CC3)N2)n1 (single isomer, unassigned) [Example 7a]",–
1.62,"[2H]C([2H])([2H])n1c(=O)c2c(c3cc(Nc4nc(N5C6CCC5COC6)ncc4Cl)cnc31)N[C@@H](C1CC1)C(F)(F)CO2 [Example 3a, (S)-10-((2-(3-oxa-8-azabicyclo[3.2.1]octan-8-yl)-5-chloropyrimidin-4-yl)amino)-2-cyclopropyl-3,3-difluoro-7-(methyl-d3)-1,2,3,4-tetrahydro-[1,4]oxazepino[2,3-c][1,8]naphthyridin-6(7H)-one]",–
3.63,"CCN1CC2CCC(C1=O)N2c1ncc(Cl)c(Nc2ccc3c(c2)c2c(c(=O)n3C)OCC(F)(F)[C@H](C3CC3)N2)n1 (mixture of isomers) [Example 9r, (S)-10-((5-chloro-2-((1S,5R)-3-ethyl-2-oxo-3,8-diazabicyclo[3.2.1]octan-8-yl)pyrimidin-4-yl)amino)-2-cyclopropyl-3,3-difluoro-7-methyl-1,2,3,4-tetrahydro-[1,4]oxazepino[2,3-c]quinolin-6(7H)-one; (S)-10-((5-chloro-2-((1R,5S)-3-ethyl-2-oxo-3,8-diazabicyclo[3.2.1]octan-8-yl)pyrimidin-4-yl)amino)-2-cyclopropyl-3,3-difluoro-7-methyl-1,2,3,4-tetrahydro-[1,4]oxazepino[2,3-c]quinolin-6(7H)-one]",–
5.01,"Cn1c(=O)c2c(c3cc(Nc4nc(N5CCC[C@H]5CO)ncc4Cl)ccc31)N[C@@H](C1CC1)C(F)(F)CO2 [Example 12x44, (S)-10-((5-chloro-2-((S)-2-(hydroxymethyl)pyrrolidin-1-yl)pyrimidin-4-yl)amino)-2-cyclopropyl-3,3-difluoro-7-methyl-1,2,3,4-tetrahydro-[1,4]oxazepino[2,3-c]quinolin-6(7H)-one]",–

# Second part, the compound before the results:
SMILES,IC50 [1] [nM],other results
"Cn1c(=O)c2c(c3cc(Nc4ccnc(F)c4Cl)ccc31)N[C@@H](C1CC1)C(F)(F)CO2 [Example 4b, (S)-10-((3-chloro-2-fluoropyridin-4-yl)amino)-2-cyclopropyl-3,3-difluoro-7-methyl-1,2,3,4-tetrahydro-[1,4]oxazepino[2,3-c]quinolin-6(7H)-one]",6.31,"numbers of GC B cells as determined by expression of the lineage markers GL7 and CD95 ([2]; spleen cell cultures, 48 hours, at 10 μM (FIG. 4)): decreased; BCL6 expression in non-GC B cells (GeoMFI, flow cytometry) ([2]; splenocytes of CFA-immunised C57BL/6 mice, activated 48 hours with αCD40 + IL-4, various concentrations (FIG. 2)): did not result in a reduction; Blimp expression by GC B cells (GeoMFI, flow cytometry) ([2]; splenocytes of CFA-immunised C57BL/6 mice, activated 48 hours with αCD40 + IL-4, various concentrations (FIG. 3)): increase"
"C#CC1CCCN(c2ncc(Cl)c(Nc3ccc4c(c3)c3c(c(=O)n4C)OCC(F)(F)[C@H](C4CC4)N3)n2)C1 (stereo partly drawn) [Example 12x22, (2S)-10-((5-chloro-2-(3-ethynylpiperidin-1-yl)pyrimidin-4-yl)amino)-2-cyclopropyl-3,3-difluoro-7-methyl-1,2,3,4-tetrahydro-[1,4]oxazepino[2,3-c]quinolin-6(7H)-one]",22.9,–
"Cn1c(=O)c2c(c3cc(Nc4nc(N5CC(C)(O)C5)ncc4Cl)ccc31)N[C@@H](C1CC1)C(F)(F)CO2 [Example 1n, (S)-10-((5-chloro-2-(3-hydroxy-3-methylazetidin-1-yl)pyrimidin-4-yl)amino)-2-cyclopropyl-3,3-difluoro-7-methyl-1,2,3,4-tetrahydro-[1,4]oxazepino[2,3-c]quinolin-6(7H)-one]",13.8,–
"Cn1c(=O)c2c(c3cc(Nc4nc(N5CCNCC(O)C5)ncc4Cl)ccc31)N[C@@H](C1CC1)C(F)(F)CO2 (stereo partly drawn) [Example 12x14, (2S)-10-((5-chloro-2-(6-hydroxy-1,4-diazepan-1-yl)pyrimidin-4-yl)amino)-2-cyclopropyl-3,3-difluoro-7-methyl-1,2,3,4-tetrahydro-[1,4]oxazepino[2,3-c]quinolin-6(7H)-one]",3.47,–
"Cn1c(=O)c2c(c3cc(Nc4nc(NCC(C)(C)O)ncc4Cl)ccc31)N[C@@H](C1CC1)C(F)(F)CO2 [Example 1d, (S)-10-((5-chloro-2-((2-hydroxy-2-methylpropyl)amino)pyrimidin-4-yl)amino)-2-cyclopropyl-3,3-difluoro-7-methyl-1,2,3,4-tetrahydro-[1,4]oxazepino[2,3-c]quinolin-6(7H)-one]",3.63,–
"CC1CCN(c2ncc(Cl)c(Nc3ccc4c(c3)c3c(c(=O)n4C)OCC(F)(F)[C@H](C4CC4)N3)n2)C1CO (stereo partly drawn) [Example 12x49, (2S)-10-((5-chloro-2-(2-(hydroxymethyl)-3-methylpyrrolidin-1-yl)pyrimidin-4-yl)amino)-2-cyclopropyl-3,3-difluoro-7-methyl-1,2,3,4-tetrahydro-[1,4]oxazepino[2,3-c]quinolin-6(7H)-one]",6.31,–
"C[C@H]1C[C@@H](OCCN(C)C)CN(c2ncc(Cl)c(Nc3ccc4c(c3)c3c(c(=O)n4C)OCC(F)(F)[C@H](C4CC4)N3)n2)C1 [Example 12x28, (S)-10-((5-chloro-2-((3R,5S)-3-(2-(dimethylamino)ethoxy)-5-methylpiperidin-1-yl)pyrimidin-4-yl)amino)-2-cyclopropyl-3,3-difluoro-7-methyl-1,2,3,4-tetrahydro-[1,4]oxazepino[2,3-c]quinolin-6(7H)-one]",3.16,–
"CN(C)[C@@H]1CCCN(c2ncc(Cl)c(Nc3ccc4c(c3)c3c(c(=O)n4C)OCC(F)(F)[C@H](C4CC4)N3)n2)C1 [Example 9i, (S)-10-((5-chloro-2-((R)-3-(dimethylamino)piperidin-1-yl)pyrimidin-4-yl)amino)-2-cyclopropyl-3,3-difluoro-7-methyl-1,2,3,4-tetrahydro-[1,4]oxazepino[2,3-c]quinolin-6(7H)-one]",2.69,–
"CC1CN(c2ncc(Cl)c(Nc3ccc4c(c3)c3c(c(=O)n4C)OCC(F)(F)[C@H](C4CC4)N3)n2)CCS1 (mixture of isomers) [Example 12f, (S)-10-((5-chloro-2-((R)-2-methylthiomorpholino)pyrimidin-4-yl)amino)-2-cyclopropyl-3,3-difluoro-7-methyl-1,2,3,4-tetrahydro-[1,4]oxazepino[2,3-c]quinolin-6(7H)-one:(S)-10-((5-chloro-2-((S)-2-methylthiomorpholino)pyrimidin-4-yl)amino)-2-cyclopropyl-3,3-difluoro-7-methyl-1,2,3,4-tetrahydro-[1,4]oxazepino[2,3-c]quinolin-6(7H)-one (1:1)]",9.55,–
"C[C@H]1C[C@H](O)CN(c2ncc(Cl)c(Nc3ccc4c(c3)c3c(c(=O)n4C)OCC(F)(F)[C@H](C4CC4)N3)n2)C1 [Example 12x13, (S)-10-((5-chloro-2-((3S,5S)-3-hydroxy-5-methylpiperidin-1-yl)pyrimidin-4-yl)amino)-2-cyclopropyl-3,3-difluoro-7-methyl-1,2,3,4-tetrahydro-[1,4]oxazepino[2,3-c]quinolin-6(7H)-one]",5.62,–
"COC1(C)CN(c2ncc(Cl)c(Nc3ccc4c(c3)c3c(c(=O)n4C)OCC(F)(F)[C@H](C4CC4)N3)n2)C1 [Example 11x, (S)-10-((5-chloro-2-(3-methoxy-3-methylazetidin-1-yl)pyrimidin-4-yl)amino)-2-cyclopropyl-3,3-difluoro-7-methyl-1,2,3,4-tetrahydro-[1,4]oxazepino[2,3-c]quinolin-6(7H)-one]",3.55,–
